Source: paper PMC6154319, “Intestinal Transport Characteristics and Metabolism of C-Glucosyl Dihydrochalcone, Aspalathin” (Molecules : A Journal of Synthetic Chemistry and Natural …, 2017)

Columns and labels:
[1] = in vitro; conditions: human, Caco-2, Papp (cm/s) a-b × 10^−6
Procedure: Validation of the Caco-2 transport experiments required consideration of three parameters, i.e., firstly, to determine the cytotoxic concentrations of synthetic aspalathin, secondly, the concentration of aspalathin required to ensure HPLC detection in the basolateral compartment, and finally, to assess whether the transport of aspalathin is concentration dependent.
Cells were cultured at 37 °C and 5% CO2 in 95% humidified air in Eagle’s Minimum Essential Medium (EMEM) containing sodium […] pyruvate, supplemented with 2 mM L-glutamine, 1% non-essential amino acids and 10% heat inactivated FBS. Cell cultures were split when 70%–80% confluent, using trypsin/ethylenediaminetetraacetic acid (EDTA). The culture medium, pre-warmed to 37 °C, was refreshed every 2–3 days. Cells were seeded at 1 × 10^4 cells/cm^2 and a sub-cultivation ratio of 1:3 was routinely used. Cells were seeded with the addition of 1% penicillin/streptomycin mixture (10,000 units/mL potassium penicillin and 10,000 µg/mL streptomycin sulphate) at 4 × 10^4 cells/cm^2 onto 0.4 µm polycarbonate 6-well inserts with an insert area of 4.52 cm^2. Cells were used for transport experiments when TEER values across wells were >300 Ω, typically 21–23 days post confluence. Only passages 50–60 were used to prevent phenotypic drift.
The cell monolayers were equilibrated briefly with transport buffer, pH 6.0 (HBSS with 2-(N-morpholino) ethanesulphonic acid (MES)) on the apical side and pH 7.4 (HBSS with HEPES) on the basolateral side, to remove traces of the culture media. Following this, transport buffers were added for 30 min prior to the addition of treatment (inhibitors were added during this step when required, as well as during the subsequent treatment incubation step). After equilibration, the plates containing transport medium were incubated for 30 min at 37 °C at 5% CO2 in 95% humidified air and the TEER value of the monolayer determined. […] For basolateral-to-apical compartment studies, 2.4 mL of treatment at the same concentrations in HBSS (pH 7.4), was added to the basolateral compartment.
To assess whether aspalathin was co-transported with glucose, its transport (100 µM) at both high (20.5 mM) and low (5.5 mM) glucose concentrations, mimicking the intestinal lumen glucose concentrations pre- and post-meals, was monitored. This was followed by experiments performed in the presence and absence of SGLT1 (100 µM phloridzin), GLUT2 (100 µM phloretin) and efflux, PgP (100 µM verapamil) inhibitors.
Samples (1.2 mL) were withdrawn from the basolateral or the apical compartment to measure the concentration of aspalathin uptake and efflux, respectively at 0, 0.5, 1, 1.5, and 2 h under sink conditions (the sample aliquot replaced with equal volume of relevant transport buffer). Sample aliquots (350 µL) were frozen in liquid nitrogen after the addition of ascorbic acid (35 µL of 10% solution) and stored at −65 °C until HPLC analysis. Results were corrected for dilution and expressed as cumulative transport (% of initial dose) as a function of time. Papp (cm/s) for bi-directional transport studies was calculated as previously described. Transport of other major flavonoids in the matrices, i.e., nothofagin, the 3-deoxy analogue of aspalathin and its flavone derivatives, orientin and isoorientin, were also determined.
Lucifer yellow (final concentration 0.1 mM) was used as a membrane integrity marker and co-incubated with the compounds and extracts.
HPLC-DAD analysis of samples from the apical and basolateral compartments was performed in duplicate on an Agilent 1200 system as previously described. Basolateral and apical samples taken after 2 h with pure aspalathin were also analysed using LC-MS (parameters described in [42]) to determine whether aspalathin metabolites were formed in the Caco-2 model.
All experiments were performed in triplicate and the data expressed as mean ± SD, unless otherwise indicated.

[2] = test system: mouse liver microsomes; assay: In vitro incubation of aspalathin in mouse liver microsomes and phosphate buffer; format: in vitro ADME
Procedure: Synthetic aspalathin (10 µM) was incubated at 37 °C in a solution containing 1 mg/mL microsomes (male Mouse BALB/c, Xenotech, Kansas city, KS, USA), magnesium chloride (5 mM) and nicotinamide adenine dinucleotide phosphate (NADPH) (1 mM) in phosphate buffer (100 mM, pH 7.4), for 1 h while shaking. A control containing all the sample constituents (not incubated), another containing no NADPH, and another containing only the compound in phosphate buffer were also included and handled similarly to the test sample.
(§1) The frozen whole blood samples, as well as the samples incubated with microsomes and controls, were thawed, extracted by protein precipitation using 0.1% formic acid (FA) in acetonitrile, centrifuged and filtered through 0.22 µm polyvinylidene difluoride (PVDF) filters (Merck Millipore, Frankfurter Straße, Darmstadt, Germany). Frozen whole urine samples were thawed and diluted 5 times in 0.1% aqueous FA. Samples were analysed by LC-MS/MS on an Agilent 1200 Rapid Resolution HPLC system (600 bar, Agilent Technologies) coupled to a 4000 QTRAP® (AB Sciex, Framingham, MA, USA) equipped with a Turbo V™ […]. Filtered samples (10 μL), stored on a sample tray maintained at 8 °C, were injected on a Gemini C6-Phenyl column (150 × 2.0 mm, 3 µm particles) (Phenomenex, Santa Clara, CA, USA) at 40 °C. […]

[3] = Acute mouse study, metabolite identification in blood and urine by LC-MS/MS; format: in vivo; conditions: oral 50 mg/kg aspalathin, urine over 8 h, tentative identification by LC-MS/MS
Procedure: An acute mouse study was performed under ethical approval from the Ethics Committee for Research on Animals (ECRA) of the South African Medical Research Council (Ref:07/13). Three 8-week old male C57.BKS mice, obtained from the Primate Unit of the South African Medical Research Council (Tygerberg, South Africa), were housed individually in polycarbonate cages with wired lids and kept in a controlled environment of 23–24 °C, 50% humidity, and a 12 h light/dark cycle. Prior to the study, urine was collected from the fasting mice overnight in a metabolic cage. Baseline fasted blood was collected via tail snip into a heparin tube, snap frozen in liquid nitrogen, and stored at −80 °C. Each mouse received a single dose of synthetic aspalathin (50 mg/kg body weight) dissolved in phosphate-buffered saline (PBS) (5 mg/mL) via orogastric gavage. Blood samples were collected and handled as described for fasting at time 0 (pre-gavage), and 1, 2, 4, 6, and 8 h post-gavage. All the samples were collected into the same heparin tube and kept on ice during the experiment. Urine was collected over the 8-h post-gavage monitoring period and the samples were stored at −80 °C until analysis.
as §1

product identified after incubation of aspalathin in mouse liver microsomes ([2]; aspalathin 10 µM, 1 mg/mL microsomes, NADPH, 37 °C, 1 h)	product identified after incubation of aspalathin in phosphate buffer ([2]; phosphate buffer pH 7.4)	metabolite present in mouse urine (relative concentrations) [3]	Compound	Papp A→B at 2 h [1]
–	–	–	O=c1cc(-c2ccc(O)c(O)c2)oc2cc(O)c([C@@H]3O[C@H](CO)[C@@H](O)[C@H](O)[C@H]3O)c(O)c12 [Isoorientin]	1.69 ± 0.2 ×10⁻⁶ cm/s
–	–	–	O=c1cc(-c2ccc(O)c(O)c2)oc2c([C@@H]3O[C@H](CO)[C@@H](O)[C@H](O)[C@H]3O)c(O)cc(O)c12 [Orientin]	1.92 ± 0.2 ×10⁻⁶ cm/s
identified	identified	identified	Eriodictyol-C-glucoside [M1]	–
